From patent publication US20200222370A1, “PHARMACEUTICAL COMPOSITION” (KOWA COMPANY, LTD., priority 2017, published 2020)

Key:
[1] = Stability of pemafibrate under different pH environments (buffer solutions, 80° C., 96 hours, HPLC); assay type: physicochemical; conditions: 5 μg/mL, 96 hours later
Method: In Test Examples below, measurement was performed through HPLC using an ODS column as a column and an ultraviolet spectrophotometer as a detector. Additionally, the following studies were conducted in order to evaluate the stability of pemafibrate under different pH environments. Namely, buffer solutions were prepared in accordance with the descriptions about buffer solutions of U.S.Pharmacopeia (2013 Edition) and Japanese Pharmacopeia (17th Edition), so as to have the following pH values at 25° C.: pH 2.0 (hydrochloric acid buffer solution including potassium chloride); pH 3.0 and 4.0 (Acid phthalate buffer solution including potassium biphthalate); pH 6.0 and 7.0 (phosphate buffer solution); pH 8.0, 9.0 and 10.0 (Alkaline borate buffer solution including boric acid, potassium chloride and sodium hydroxide); pH 11.0 (Ammonium buffer solution including ammonia and ammonium chloride); and pH 12.0 (phosphate buffer solution). In each of the buffer solutions, pemafibrate was dissolved or dispersed so that its amount as the free form was 5 μg/mL, thereby producing liquid samples having different pH conditions. The liquid samples were stored at 80° C. for 96 hours. The amounts of pemafibrate-derived decomposition products (related substances) in the liquid samples after storage for 96 hours were evaluated through the following method. Specifically, acetonitrile was added to each of the liquid samples, and then they were measured by using HPLC. The sum of peak areas derived from related substances on the chromatogram was calculated in terms of the ratio (%) to the sum of peak areas derived from pemafibrate and related substances, and the ratio was defined as the “Total amount (%) of related substances”.

[2] = pH value of pemafibrate itself dissolved or dispersed in purified water; assay type: physicochemical; conditions: pemafibrate 5 μg/mL as free form in purified water
Method: Herein, the “a pH value of a solution produced by dissolving or dispersing a pharmaceutical composition in water” means a value obtained by measuring at 25° C. a pH of a solution produced by dissolving or dispersing a pharmaceutical composition containing pemafibrate, a salt thereof or a solvate thereof in water so that the concentration of pemafibrate in terms of a free form is 5 μg/mL. Incidentally, purified water is used as water. First a measurement of a pH value of pemafibrate itself was performed. To be more specific, pemafibrate was dissolved or dispersed in purified water so that the concentration of pemafibrate as the free form was 5 μg/mL. Then, a pH value of the obtained solution at 25° C. was measured.

Compound: CC[C@@H](Oc1cccc(CN(CCCOc2ccc(OC)cc2)c2nc3ccccc3o2)c1)C(=O)O [pemafibrate, (2R)-2-[3-([1,3-Benzoxazol-2-yl[3-(4-methoxyphenoxy)propyl]amino]methyl)phenoxy]butanoic acid]
- Total amount (%) of related substances ([1]; pH 2.0 buffer): 27.1%
- Total amount (%) of related substances ([1]; pH 3.0 buffer): 4.1%
- Total amount (%) of related substances ([1]; pH 4.0 buffer): 1.1%
- Total amount (%) of related substances ([1]; pH 6.0 buffer): 1.3%
- Total amount (%) of related substances ([1]; pH 7.0 buffer): 0.9%
- Total amount (%) of related substances ([1]; pH 8.0 buffer): 0.4%
- Total amount (%) of related substances ([1]; pH 9.0 buffer): <0.1%
- Total amount (%) of related substances ([1]; pH 10.0 buffer): 0.1%
- Total amount (%) of related substances ([1]; pH 11.0 buffer): 0.1%
- Total amount (%) of related substances ([1]; pH 12.0 buffer): <0.1%
- pH value (25° C.) [2]: ~5.9
